Assay results: patent US20210269479A1, “USE OF CY[…] FOR TREATING CANCER” (Hepion Pharmaceuticals, Inc., priority 2020, published 2021)
Entries after “also recorded” stand apart in the source; their conditions may differ.

What was measured:
[1] = tested on: human precision cut liver slices (PCLS); assay: Gene expression in PCLS by RT-PCR; format: cell-based; settings: collagen1α1, αSMA, TIMP1, IL-6, MCP-1
Procedure: (§1) PCLS were obtained from 5 human donors who underwent resection of liver cancer. Replicate slices were collected from healthy margins of the resections and cultured for 4 or 6 days depending on the experimental protocol. In the Nonstimulation Protocol slices were cultured for 6 days and treated for the entire period with DMSO vehicle or 5 μM CRV431. In the Stimulation Protocol slices were rested for 1 day and then administered the cytokines, TGFβ and PDGF-BB, for 3 days to stimulate inflammation and fibrosis. DMSO vehicle, CRV431 (1 and 5 μM), Alk5i (10 μM), obeticholic acid (5 μM), elafibranor (5 μM), resmetirom (5 μM), and Aramchol (5 μM) were administered individually as drug treatments in the Stimulation Protocol concurrent with TGFβ+PDGF-BB. Culture medium treatments were replaced daily.
(c) Gene expression by RT-PCR. RNA was isolated from duplicate liver slices per treatment at the end of the experiments and evaluated by RT-PCR for 5 markers of inflammation and fibrosis: MCP-1, IL-6, TIMP1, αSMA, and collagen 1α1. β actin was used as a reference gene to calculate relative levels of each target gene RNA. […] Results are shown in FIG. 1C (gene expression by RT-PCR).

[2] = tested on: fibroblastic cells (IPF lung fibroblasts, cardiac fibroblasts, dermal fibroblasts, renal mesangial cells, LX2 hepatic stellate cell line); assay: Procollagen and fibronectin (ECM) secretion from fibroblastic cells, ELISA; format: cell-based
Text: For example, as described herein, CRV431 can regulate oncogenes, and have anti-oncogenic activities. CRV431 can decrease production of the extracellular matrix (ECM) molecules, collagen and fibronectin, from fibroblastic cells derived from five cell types, including lung fibroblasts from a patient with idiopathic pulmonary fibrosis (“IPF”), cardiac fibroblasts, dermal (skin) fibroblasts, renal mesangial cells, and the LX2 hepatic stellate cell line. It is known that IPF is an aggressive fibrotic disease in tremendous need of new treatments. […] The extent of inhibition was similar whether or not the cells were stimulated with the profibrotic agent, transforming growth factor-beta (TGFβ), consistent with direct effects on ECM synthesis.

[3] = tested on: human precision cut liver slices (PCLS); assay: Sirius red histological staining of PCLS (tissue fibrosis); format: cell-based
Procedure: as §1
(b) Sirius red histological staining. […] Sirius red was quantified morphometrically in the histological sections as the percentage area with Sirius red staining in 10 sections from each treatment. In the Nonstimulation Protocol the quantity of Sirius red staining was expressed relative to the vehicle group. In the Stimulation Protocol the quantity of Sirius red staining was expressed relative to nonstimulated PCLS (0%) and TGFβ+PDGF-BB-stimulated+vehicle PCLS (100%). Results are shown in FIG. 1B (Sirius red staining for tissue fibrosis).

[4] = tested on: HepG2 hepatocellular carcinoma cells; settings: 4 days, strongest with 0.37 μM daunorubicin and CRV431 0.25-4 μM
Procedure: (§2) HepG2 hepatocellular carcinoma cell lines and Huh7 hepatocellular carcinoma cell lines were plated in 96 well plates at subconfluent densities. The chemotherapy compound, daunorubicin, and CRV431 were applied alone or in combination at the indicated concentrations in duplicate wells for each treatment. After 4 days incubation, cell viability was assessed with Cell Titer Glo 2.0.

[5] = tested on: Huh7 hepatocellular carcinoma cells; settings: 4 days, strongest with 0.37 μM daunorubicin and CRV431 1-4 μM
Procedure: as §2

## CC[C@@H]1NC(=O)[C@H]([C@H](O)[C@H](C)CCCCCCNC(C)=O)N(C)C(=O)[C@H](C(C)C)N(C)C(=O)[C@H](CC(C)C)N(C)C(=O)[C@H](CC(C)C)N(C)C(=O)[C@@H](C)NC(=O)[C@H](C)NC(=O)[C@H](CC(C)C)N(C)C(=O)[C@H](C(C)C)NC(=O)[C@H](CC(C)C)N(C)C(=O)[C@@H](C)N(C)C1=O [CRV431]
[1]
  RNA levels of inflammation and fibrosis markers by qRT-PCR: reductions in RNA levels of collagen1α1, αSMA, TIMP1, IL-6, and MCP-1; also recorded: decreased the mean daily secretion and gene expression of all markers
[2]; ELISA, with or without TGFβ stimulation
  procollagen and fibronectin secretion: dose-dependently decreased procollagen and fibronectin secretion from all cell types
[2]; clinically relevant concentrations
  cell viability: without causing any reduction in cell viability
[2]; clinically relevant concentrations, collagen and fibronectin
  decrease of ECM production: up to 55%
[3]; 6 days of culture, absence of exogenous TGFβ+PDGF-BB
  tissue fibrosis vs vehicle-treated slices: less fibrosis than vehicle-treated slices
[3]; Stimulation Protocol, compared with other NASH drug candidates
  prevention of TGFβ+PDGF-BB-induced tissue fibrosis: most effective of five NASH drug candidates
[4]
  effect on cytotoxicity of daunorubicin: increased the cytotoxicity of daunorubicin
[5]
  effect on cytotoxicity of daunorubicin: increased the cytotoxicity of daunorubicin
